Measurements published in the supplement of paper PMC10307832.

Legend:
Assay in all cases: relative viability (nuclei count vs DMSO), 5 days (fraction); higher = more cells survive
MK-2206 + Foretinib = compound: NC1(c2ccc(-c3nc4ccn5c(=O)[nH]nc5c4cc3-c3ccccc3)cc2)CCC1 [MK-2206] + COc1cc2c(Oc3ccc(NC(=O)C4(C(=O)Nc5ccc(F)cc5)CC4)cc3F)ccnc2cc1OCCCN1CCOCC1 [Foretinib] (partner 0.25 µM)
Procedure, shortened: (§1)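 After 5 days of treatment, lung cancer cells in 1536-well plates were fixed and stained in a single step (final 0.05% Triton X-100, 1% formaldehyde, 1 ug/ml Hoechst) and their nuclei counted on 4× images. Treatment had been applied by pin tool the day after seeding as one drug alone or as a fixed anchor-drug dose with five library-drug doses (not always all listed) in √10 steps. Relative viability is the nuclei count of treated wells divided by that of vehicle wells, and values are medians of duplicate plates.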

Pictilisib + Dasatinib = compound: CS(=O)(=O)N1CCN(Cc2cc3nc(-c4cccc5[nH]ncc45)nc(N4CCOCC4)c3s2)CC1 [Pictilisib] + Cc1nc(Nc2ncc(C(=O)Nc3c(C)cccc3Cl)s2)cc(N2CCN(CCO)CC2)n1 [Dasatinib] (partner 0.075 µM)
Procedure, shortened: as §1

MK-2206 + Vorinostat = compound: NC1(c2ccc(-c3nc4ccn5c(=O)[nH]nc5c4cc3-c3ccccc3)cc2)CCC1 [MK-2206] + O=C(CCCCCCC(=O)Nc1ccccc1)NO [Vorinostat] (partner 1 µM)
Procedure, shortened: as §1

MK-2206 + Tozasertib = compound: NC1(c2ccc(-c3nc4ccn5c(=O)[nH]nc5c4cc3-c3ccccc3)cc2)CCC1 [MK-2206] + Cc1cc(Nc2cc(N3CCN(C)CC3)nc(Sc3ccc(NC(=O)C4CC4)cc3)n2)n[nH]1 [Tozasertib] (partner 0.1 µM)
Procedure, shortened: as §1

Pictilisib + Alpelisib = compound: CS(=O)(=O)N1CCN(Cc2cc3nc(-c4cccc5[nH]ncc45)nc(N4CCOCC4)c3s2)CC1 [Pictilisib] + Cc1nc(NC(=O)N2CCC[C@H]2C(N)=O)sc1-c1ccnc(C(C)(C)C(F)(F)F)c1 [Alpelisib] (partner 2 µM)
Procedure, shortened: as §1

| Cell Line | relative viability (MK-2206 + Foretinib; first compound 0.01 µM) | relative viability (MK-2206 + Foretinib; first compound 0.03162 µM) | relative viability (MK-2206 + Foretinib; first compound 0.3162 µM) | relative viability (MK-2206 + Foretinib; first compound 1 µM) | relative viability (Pictilisib + Dasatinib; first compound 0.02 µM) | relative viability (Pictilisib + Dasatinib; first compound 0.06325 µM) | relative viability (Pictilisib + Dasatinib; first compound 0.6325 µM) | relative viability (Pictilisib + Dasatinib; first compound 2 µM) | relative viability (MK-2206 + Vorinostat; first compound 0.01 µM) | relative viability (MK-2206 + Vorinostat; first compound 0.03162 µM) | relative viability (MK-2206 + Vorinostat; first compound 0.3162 µM) | relative viability (MK-2206 + Vorinostat; first compound 1 µM) | relative viability (MK-2206 + Tozasertib; first compound 0.01 µM) | relative viability (MK-2206 + Tozasertib; first compound 0.03162 µM) | relative viability (MK-2206 + Tozasertib; first compound 0.3162 µM) | relative viability (MK-2206 + Tozasertib; first compound 1 µM) | relative viability (Pictilisib + Alpelisib; first compound 0.02 µM) | relative viability (Pictilisib + Alpelisib; first compound 0.06325 µM) | relative viability (Pictilisib + Alpelisib; first compound 0.6325 µM) | relative viability (Pictilisib + Alpelisib; first compound 2 µM) |
| --- | --- | --- | --- | --- | --- | --- | --- | --- | --- | --- | --- | --- | --- | --- | --- | --- | --- | --- | --- | --- |
| NCI-H1395 | 1.03 | 0.966 | 0.885 | 0.922 | 0.406 | 0.392 | 0.296 | 0.265 | 0.713 | 0.667 | 0.574 | 0.576 | 0.825 | 0.693 | 0.683 | 0.631 | 1.11 | 1.03 | 0.855 | 0.531 |
| NCI-H1355 | 0.94 | 1.02 | 0.952 | 0.952 | 0.645 | 0.711 | 0.469 | 0.331 | 0.598 | 0.667 | 0.541 | 0.49 | 0.555 | 0.587 | 0.533 | 0.47 | 0.828 | 0.741 | 0.865 | 0.505 |
| NCI-H1650 | 1.28 | 1.15 | 0.864 | 0.947 | 0.406 | 0.277 | 0.174 | 0.16 | 0.532 | 0.612 | 0.656 | 0.519 | 0.364 | 0.377 | 0.408 | 0.346 |  |  |  |  |
| IA-LM | 1.06 | 1.11 | 1.07 | 1.19 |  |  |  |  | 0.935 | 1.11 | 1.02 | 1.02 |  |  |  |  | 0.732 | 0.982 | 0.749 | 0.418 |
| NCI-H1666 | 1 | 0.985 | 1.02 | 0.91 | 0.805 | 0.876 | 0.568 | 0.523 | 1.03 | 1.07 | 1.04 | 0.916 | 0.636 | 0.631 | 0.647 | 0.594 | 0.982 | 0.989 | 0.748 | 0.428 |
| HCC-78 | 0.557 |  | 0.496 | 0.459 | 0.379 | 0.359 | 0.222 | 0.189 | 0.439 | 0.504 | 0.408 | 0.398 | 1.52 |  | 0.38 | 0.365 | 0.332 | 0.279 | 0.289 | 0.19 |
| H3255 | 0.866 | 0.971 | 0.731 | 0.746 | 0.447 | 0.31 | 0.252 | 0.213 | 0.779 | 0.803 | 0.724 | 0.617 | 0.773 | 0.663 | 0.511 | 0.703 | 0.684 | 0.601 | 0.601 | 0.523 |
| NCI-H23 | 1.1 | 1.11 | 1.05 | 0.902 | 0.864 | 0.863 | 0.487 | 0.234 | 0.6 | 0.508 | 0.569 | 0.372 | 0.43 | 0.359 | 0.364 | 0.281 | 0.728 | 0.77 | 0.827 | 0.487 |
